Values joined by “and” are separate entries in the source; they are usually repeats but may differ in a detail not shown here. Equal values may be shown once.
Columns and labels:
[1] = test system: individuals with MDD; settings: switch strategy; cited from earlier work
[2] = Pharmacokinetics of dextromethorphan, bupropion and metabolites after administration of the subject combination
[3] = test system: patients with major depressive disorder; assay: Phase 2 randomized double-blind trial, dextromethorphan-bupropion (45 mg/105 mg tablet) vs bupropion (105 mg tablet), twice daily, 6 weeks (NCT03595579)
Description: This randomized, double-blind, multicenter, parallel-group trial evaluated dextromethorphan-bupropion versus the active comparator sustained-release bupropion in patients 18-65 years old with a diagnosis of major depressive disorder of moderate or greater severity. Patients were randomly assigned to receive either dextromethorphan-bupropion (45 mg/105 mg tablet) or bupropion (105 mg tablet), once daily for the first 3 days and twice daily thereafter, for a total of 6 weeks.
This was a 6-week randomized, double-blind, active-controlled phase 2 trial conducted at four sites in the United States from May 2018 to December 2018. The trial used bupropion, an approved antidepressant, as the control because it is a component of dextromethorphan-bupropion.
The clinical review utilized only documentation collected by the sites at screening and baseline, including a complete medical history and clinician- and patient-reported outcome measures (described below, under Efficacy Assessments). […] In order to reduce investigator expectation bias and therefore placebo response, sites were blinded to the primary efficacy variable and the presence of an independent assessor. Sites were provided a blinded protocol that presented the trial as a safety study with exploratory efficacy assessments. Detailed discussion of the efficacy analysis was limited to the statistical analysis plan, which was not provided to the sites.
The study evaluated patients 18-65 years of age with a confirmed diagnosis of major depressive disorder and a current major depressive episode of moderate or greater severity. The diagnosis was established using the DSM-5 criteria for major depressive disorder without psychotic features, based on the Structured Clinical Interview for DSM-5, Clinical Trials Version, and the site investigator's rating of a score ≥25 on the Montgomery-Åsberg Depression Rating Scale (MADRS) and a score ≥4 on the Clinical Global Impressions severity scale (CGI-S). Confirmation of the diagnosis of major depressive disorder and a current major depressive episode of moderate or greater severity was performed by a blinded independent assessor based on a clinical review prior to database lock and study unblinding.
The screening period was up to 4 weeks to allow for any needed taper and washout of prior medications.
Participants were randomized in a 1:1 ratio to receive oral treatment with either dextromethorphan-bupropion or sustained-release bupropion. In order to blind site investigators to the independent confirmation of diagnosis, all patients deemed eligible by the site investigators were randomized to receive study medication and were included in the safety population. As prespecified, patients whose diagnosis or severity was not confirmed by the independent assessor were excluded from the efficacy population.
Dextromethorphan-bupropion tablets and bupropion tablets were identical in appearance. The randomization schedule was computer generated using a permuted block algorithm that randomly allocated study drug to randomization numbers.
The double-blind treatment period was 6 weeks. Patients received their assigned study medication, dextromethorphan-bupropion (45 mg/105 mg tablet) or bupropion (105 mg tablet), once daily for the first 3 days and twice daily thereafter. The bupropion dosage in the control arm (210 mg daily) was selected to match the dosage incorporated in dextromethorphan-bupropion, enabling an appropriate comparison. During the treatment period, patients tracked their mood daily by completing a daily visual analogue mood scale. Study visits occurred 1, 2, 3, 4, and 6 weeks after the baseline visit. A safety follow-up visit occurred at week 7, 1 week after the last dose of study medication. There were no formal discontinuation criteria; patients were free to withdraw consent for any reason, and investigators were free to remove a patient from the study for any safety-related reason.

[4] = test system: patients with depression; settings: 150 mg/day or 300 mg/day, week 8; cited from earlier work

For `COc1ccc(C(CN(C)C)C2(O)CCCCC2)cc1` (stereo not drawn) [venlafaxine], the “Remission rate, second line treatment following non-remission with an SSRI” value [1] is given as “about 25%”.
For `COc1ccc2c(c1)[C@]13CCCC[C@@H]1[C@H](C2)N(C)CC3` [dextromethorphan], the “Increase of mean elimination half-life vs dextromethorphan given without bupropion” value ([2]; 8 consecutive days of the subject combination, extensive metabolizers) was “approximately 3 fold”, the “AUC0-12 decrease when administered with food” value ([2]; subject combination with food) was 14% and the “Cmax change when administered with food” value ([2]; subject combination with food) was “unchanged”.
With `CC(NC(C)(C)C)C(=O)c1cccc(Cl)c1` (racemic) [bupropion] the “Adverse event leading to discontinuation of study drug, patients” value ([3]; human, in vivo, 6 weeks) was 12.5%, the “Anxiety, patients” value ([3]; human, in vivo, 6 weeks) was 2.1% and the “Any adverse event, patients” value ([3]; human, in vivo, 6 weeks) was 64.6%. The “Decreased appetite, patients” value ([3]; human, in vivo, 6 weeks) was 8.3%, the “Dizziness, patients” value ([3]; human, in vivo, 6 weeks) was 4.2% and the “Dry mouth, patients” value ([3]; human, in vivo, 6 weeks) was 8.3%. The “Nausea, patients” value ([3]; human, in vivo, 6 weeks) was 12.5%, the “Serious adverse event, patients” value ([3]; human, in vivo, 6 weeks) was 0.0% and the “Severe adverse event, patients” value ([3]; human, in vivo, 6 weeks) was 2.1%. For the same compound, the “CGI-S score, change from baseline, LS mean” value (shortened to “CGI-S score, change”) ([3]; overall, weeks 1-6) was −1.0, the “MADRS-6 score, change from baseline, LS mean” value (shortened to “MADRS-6 score, change”) ([3]; overall, weeks 1-6) was −6.6 points and the “QIDS-SR, LS mean change from baseline” value ([3]; overall, weeks 1-6) was −4.8. The “Patients with positive response on item 1 of the C-SSRS (wish to be dead)” value ([3]; week 1) was “five”, the “CGI-S score, change” value ([3]; week 2) was −0.9 and the “Clinical response (≥50% decrease in MADRS score from baseline), patients” value ([3]; week 2) was 27.0%. The “MADRS total score, change from baseline, LS mean” value ([3]; week 2) was −7.8 points, the “MADRS-6 score, change” value ([3]; week 2) was −6.0 and the “Remission (MADRS score ≤10), patients” value ([3]; week 2) was 2.7% and 3%. For the same compound, the “CGI-S score, change” value ([3]; week 6) was −1.5, the “Clinical response (≥50% decrease in MADRS score from baseline), patients” value ([3]; week 6) was 40.5% and the “MADRS total score, change from baseline, LS mean” value ([3]; week 6) was −12.1 points. The “MADRS-6 score, change” value ([3]; week 6) was −8.7, the “Patients with positive response on item 1 of the C-SSRS (wish to be dead)” value ([3]; week 6) was “one” and the “Remission (MADRS score ≤10), patients” value ([3]; week 6) was 16.2%. For the same compound, the “Remission on the QIDS-SR (score ≤5), patients” value ([3]; week 6) was 21.6%, the “Reduction from baseline in MADRS total score” value ([3]; week 6, bupropion arm 210 mg/day) was 12 points and the “Reduction from baseline in Hamilton Depression Rating Scale (HAM-D) score” value [4] was “approximately 10 points”. The “Remission rate, second line treatment following non-remission with an SSRI” value [1] was “about 25%”.
For `CN[C@H]1CC[C@@H](c2ccc(Cl)c(Cl)c2)c2ccccc21` [sertraline], the “Remission rate, second line treatment following non-remission with an SSRI” value [1] is listed as “about 25%”.
